This series relates to CCRIS mutagenicity, Ames/micronucleus/aberration tests. As to the kind of experiment: CCRIS mutagenicity studies.
Where [1] appears, read: Test System: AMES SALMONELLA TYPHIMURIUM, Strain/Indicator: TA98, Metabolic Activation: NONE, Method: STANDARD PLATE.
Where [2] appears, read: Test System: AMES SALMONELLA TYPHIMURIUM, Strain/Indicator: TA100, Metabolic Activation: NONE, Method: STANDARD PLATE.

Activity calls are given as the source filed them. How the calls were made is not given here.

With `O=[N+]([O-])C1=Cc2cccc3c2c1cc1ccc2ccccc2c13`, the mutagenic call is “active; positive” under setting [1]; “inactive; negative” (Test System: AMES SALMONELLA TYPHIMURIUM, Strain/Indicator: TA98, Metabolic Activation: RAT, LIVER, S-9, AROCLOR 1254, Method: STANDARD PLATE); “inactive; negative” under setting [2]; “active; positive” (Test System: AMES SALMONELLA TYPHIMURIUM, Strain/Indicator: TA100, Metabolic Activation: RAT, LIVER, S-9, AROCLOR 1254, Method: STANDARD PLATE); “inactive; negative” (Test System: AMES SALMONELLA TYPHIMURIUM, Strain/Indicator: TA1535, Metabolic Activation: NONE, Method: STANDARD PLATE); “inactive; negative” (Test System: AMES SALMONELLA TYPHIMURIUM, Strain/Indicator: TA1535, Metabolic Activation: RAT, LIVER, S-9, AROCLOR 1254, Method: STANDARD PLATE). The mutagenic call (Test System: AMES SALMONELLA TYPHIMURIUM, Strain/Indicator: TA1537, Metabolic Activation: NONE, Method: STANDARD PLATE) was “active; positive”; the mutagenic call (Test System: AMES SALMONELLA TYPHIMURIUM, Strain/Indicator: TA1537, Metabolic Activation: RAT, LIVER, S-9, AROCLOR 1254, Method: STANDARD PLATE) was “active; positive”; the mutagenic call (Test System: AMES SALMONELLA TYPHIMURIUM, Strain/Indicator: TA1538, Metabolic Activation: NONE, Method: STANDARD PLATE) was “active; positive”; the mutagenic call (Test System: AMES SALMONELLA TYPHIMURIUM, Strain/Indicator: TA1538, Metabolic Activation: RAT, LIVER, S-9, AROCLOR 1254, Method: STANDARD PLATE) was “active; positive”.

Consider `CCCOc1ccccc1C(=O)NOC(C)=O`, for which the mutagenic call under setting [2] was “active; positive” and the mutagenic call (Test System: AMES SALMONELLA TYPHIMURIUM, Strain/Indicator: TA100, Metabolic Activation: RAT, S-9, AROCLOR, Method: STANDARD PLATE) is “active; positive”.

Take `CC1(C)CC(C(=O)NC(CO)C(O)CO)C(C)(C)N1[O]` (stereo not drawn): the mutagenic call by setting is: (Test System: AMES SALMONELLA TYPHIMURIUM, Strain/Indicator: TA102, Metabolic Activation: NONE, Method: STANDARD PLATE) “inactive; negative”; (Test System: AMES SALMONELLA TYPHIMURIUM, Strain/Indicator: TA102, Metabolic Activation: XANTHINE OXIDASE, Method: STANDARD PLATE) “inactive; negative”; (Test System: AMES SALMONELLA TYPHIMURIUM, Strain/Indicator: TA104, Metabolic Activation: NONE, Method: STANDARD PLATE) “inactive; negative”; (Test System: AMES SALMONELLA TYPHIMURIUM, Strain/Indicator: TA104, Metabolic Activation: XANTHINE OXIDASE, Method: STANDARD PLATE) “inactive; negative”; (Test System: CHO, Strain/Indicator: CHO/6-THIOGUANINE, Metabolic Activation: NONE, Method: STANDARD PLATE) “inactive; negative”; (Test System: CHO, Strain/Indicator: CHO/6-THIOGUANINE, Metabolic Activation: RAT, LIVER, S-9, AROCLOR 1254, Method: STANDARD PLATE) “inactive; negative”. Besides, the mutagenic call reads like this: (Test System: CHO, Strain/Indicator: CHO/OUABAIN, Metabolic Activation: NONE, Method: STANDARD PLATE) “inactive; negative”; (Test System: CHO, Strain/Indicator: CHO/OUABAIN, Metabolic Activation: RAT, LIVER, S-9, AROCLOR 1254, Method: STANDARD PLATE) “inactive; negative”.

As to `O=[N+]([O-])c1ccc2ccc3c4ccccc4cc4ccc1c2c43`, the mutagenic call by setting is: (Test System: AMES SALMONELLA TYPHIMURIUM, Strain/Indicator: TA98(1,8-DNP6), Metabolic Activation: NONE) “active; positive”; (Test System: AMES SALMONELLA TYPHIMURIUM, Strain/Indicator: TA98 (1,8-DNP6), Metabolic Activation: NONE, Method: STANDARD PLATE) “active; positive”; (Test System: AMES SALMONELLA TYPHIMURIUM, Strain/Indicator: TA98(NR), Metabolic Activation: NONE) “active; positive”; (Test System: AMES SALMONELLA TYPHIMURIUM, Strain/Indicator: TA98(NR), Metabolic Activation: NONE, Method: PREINCUBATION) “active; positive”; (Test System: AMES SALMONELLA TYPHIMURIUM, Strain/Indicator: TA98 (NR), Metabolic Activation: NONE, Method: STANDARD PLATE) “inactive; negative”; (Test System: AMES SALMONELLA TYPHIMURIUM, Strain/Indicator: TA98, Metabolic Activation: NONE) “active; positive”. Moreover, the mutagenic call (Test System: AMES SALMONELLA TYPHIMURIUM, Strain/Indicator: TA98, Metabolic Activation: NONE', Method: STANDARD PLATE) is “active; positive”; the mutagenic call (Test System: AMES SALMONELLA TYPHIMURIUM, Strain/Indicator: TA98, Metabolic Activation: NONE, Method: PREINCUBATION) is “active; positive”; the mutagenic call under setting [1] is “active; positive”; the mutagenic call (Test System: AMES SALMONELLA TYPHIMURIUM, Strain/Indicator: TA98, Metabolic Activation: NONE, Method: STANDARD PLATE (ANAEROBIC)) was “active; positive”; the mutagenic call (Test System: AMES SALMONELLA TYPHIMURIUM, Strain/Indicator: TA98, Metabolic Activation: RAT, LIVER, HEPATOCYTES, AROCLOR 1254) was “active; positive”; the mutagenic call (Test System: AMES SALMONELLA TYPHIMURIUM, Strain/Indicator: TA98, Metabolic Activation: RAT, LIVER, S-9, AROCLOR 1254) was “active; positive”. Besides, the mutagenic call was “active; positive” under setting [2]; “inactive; negative” (Test System: CHINESE HAMSTER OVARY, Strain/Indicator: CHO-K1-BH4 (HGPRT), Metabolic Activation: NONE); “active; positive” (Test System: CHINESE HAMSTER OVARY, Strain/Indicator: CHO-K1-BH4 (HGPRT), Metabolic Activation: RAT, LIVER, S-9, 3-METHYLCHOLANTHRENE); “inactive; negative” (Test System: CHO/HGPRT, Strain/Indicator: CHO-K1-BH4, Metabolic Activation: NONE); “inactive; negative” (Test System: CHO/HGPRT, Strain/Indicator: CHO-K1-BH4, Metabolic Activation: RAT, LIVER, HEPATOCYTES); “inactive; negative” (Test System: CHO/HGPRT, Strain/Indicator: CHO-K1-BH4, Metabolic Activation: RAT, LIVER, HEPATOCYTES, 3-METHYLCHOLANTHRENE). The mutagenic call is, setting by setting: (Test System: CHO/HGPRT, Strain/Indicator: CHO-K1-BH4, Metabolic Activation: RAT, LIVER, HEPATOCYTES, AROCLOR 1254) “inactive; negative”; (Test System: CHO/HGPRT, Strain/Indicator: CHO-K1-BH4, Metabolic Activation: RAT, LIVER, S-9) “inactive; negative”; (Test System: CHO/HGPRT, Strain/Indicator: CHO-K1-BH4, Metabolic Activation: RAT, LIVER, S-9, 3-METHYLCHOLANTHRENE) “active; positive”; (Test System: CHO/HGPRT, Strain/Indicator: CHO-K1-BH4, Metabolic Activation: RAT, LIVER, S-9, AROCLOR 1254) “active; positive”.

Regarding `O=[N+]([O-])c1ccc2c(c1)Oc1cc(Cl)c(Cl)cc1O2`, the mutagenic call is “active; positive” under setting [1]; “active; positive” (Test System: AMES SALMONELLA TYPHIMURIUM, Strain/Indicator: TA98, Metabolic Activation: RAT, LIVER, S-9, AROCLOR, Method: STANDARD PLATE); “active; positive” under setting [2]; “active; positive” (Test System: AMES SALMONELLA TYPHIMURIUM, Strain/Indicator: TA100, Metabolic Activation: RAT, LIVER, S-9, AROCLOR, Method: STANDARD PLATE).

As to `CNC(=O)NO`, the mutagenic call was “inactive; negative” under setting [1] and “inactive; negative” under setting [2].

Source of the values: PubChem BioAssay AID1259407 (Chemical Carcinogenesis Research Information System (CCRIS), 2018).
